# How the values were obtained:
# [1] = tested on: IFNγ; assay: IFNγ production by αCD3/CD28-activated CD8+ T cells (Human IFNγ ELISA); type: cell-based; conditions: 3, 10 and 30 μM; human CD8+ T cells activated with αCD3/CD28; FIG. 2B
# Protocol: (§1) FIG. 2—Effect of the aqueous extract of Stachytarpheta cayennensis (3, 10 and 30 μM, concentration expressed in ipolamiide) and isolated ipolamiide (3, 10 and 30 μM) on the proliferation of CD8+ T cells activated by αCD3/CD28 (A) and IFNγ production (B). The effect of the pool of compounds (IV to VIII) and the five novel isolated compounds (IV to VIII) generated after the acid hydrolysis of ipolamiide (30 μM) was also evaluated in the same experiments, proliferation of CD8+ T cells activated by αCD3/CD28 (C) and IFNγ production (D). Tacrolimus (0.5 μM) was used as the positive control for all experiments. The data are the mean±SD of three replicates.
# (§2) The extract of Stachytarpheta cayennensis, ipolamiide and derivatives were studied in an experimental in vitro immunological model involving CD8+ T cells and IFNγ. […]
# (§3) Peripheral blood mononuclear cells (PBMCs) from healthy volunteers were isolated from leukocyte layers by Ficoll-Hystopaque centrifugation. […] Specifically, it was evaluated the incorporation of BrdU through the Biotrak ELISA System (GE Healthcare, RPN250) per the manufacturer's instructions. The methodology for quantification of interferon gamma comprised the use of the Human IFNγ ELISA Ready-SET-Go kit (eBiosciences 88-7316-88) and followed the manufacturer's instructions. […]
# [2] = tested on: CD8+ T cells activated by αCD3/CD28; assay: Proliferation of CD8+ T cells activated by αCD3/CD28 (BrdU incorporation, Biotrak ELISA); type: cell-based; conditions: 3, 10 and 30 μM (extract concentration expressed in ipolamiide); human CD8+ T cells from PBMCs; FIG. 2A
# Protocol: as §1, §2, §3
compound,measurement,setting,value
COC(=O)C1=CO[C@@H](O[C@@H]2O[C@H](CO)[C@@H](O)[C@H](O)[C@H]2O)[C@@H]2[C@@](C)(O)CC[C@]12O [ipolamiide],secretion of IFNγ,[1],had no effect
same,activation / proliferation of CD8+ T cells induced by αCD3/CD28,[2],had no effect

# — patent publication US12698265B2, “Plant extracts enriched with ipolamiide derivatives as immunosuppressants for treating immunological disorders” (priority 2017, dated 2026)
